Data published in PubChem BioAssay AID262 (DTP/NCI, 2004).
Where “and” joins values, the source holds several entries; their conditions need not be identical. Equal entries are not always repeated.

Test system: LX-1 lung xenograft sc, nude mice, tumor weight
Experiment: NCI In Vivo Anticancer Drug Screen. Data for tumor model Human Lung LX-1 Xenograft (subcutaneous) in NU/NU Swiss (nude) mice
Settings: endpoint: optimum tumor weight change, higher = larger tumour
Description: The antitumor activity of compounds was measured in mice bearing transplantable tumors. Survival or tumor size were measured and the results are expressed as the measurement made in the treated group (T) divided by the measurement made in the vehicle treated control group (C). The tumor model used in this assay is Human Lung LX-1 Xenograft (subcutaneous) in NU/NU Swiss (nude) mice

[1] = dose: 10.0 mg/kg/injection, schedule: Q04DX003 (ip), vehicle: Klucel (hydroxypropylcellulose) (HPC)
[2] = dose: 20.0 mg/kg/injection, schedule: Q04DX003 (ip), vehicle: Klucel (hydroxypropylcellulose) (HPC)
[3] = dose: 0.5 mg/kg/injection, schedule: Q04DX003 (ip), vehicle: saline
[4] = dose: 1.0 mg/kg/injection, schedule: Q04DX003 (ip), vehicle: saline
[5] = dose: 4.0 mg/kg/injection, schedule: Q04DX003 (ip), vehicle: saline
[6] = dose: 400.0 mg/kg/injection, schedule: Q04DX003 (ip), vehicle: saline
[7] = dose: 800.0 mg/kg/injection, schedule: Q04DX003 (ip), vehicle: saline
[8] = dose: 1600.0 mg/kg/injection, schedule: Q04DX003 (ip), vehicle: saline
[9] = dose: 100.0 mg/kg/injection, schedule: Q04DX003 (ip), vehicle: saline with Tween-80
[10] = dose: 400.0 mg/kg/injection, schedule: Q04DX003 (ip), vehicle: saline with Tween-80
[11] = dose: 800.0 mg/kg/injection, schedule: Q04DX003 (ip), vehicle: saline with Tween-80
[12] = dose: 100.0 mg/kg/injection, schedule: Q04DX003 (ip), vehicle: suspension in saline
[13] = dose: 200.0 mg/kg/injection, schedule: Q04DX003 (ip), vehicle: suspension in saline
[14] = dose: 400.0 mg/kg/injection, schedule: Q04DX003 (ip), vehicle: suspension in saline
[15] = dose: 200.0 mg/kg/injection, schedule: Q04DX003 (ip), vehicle: saline
[16] = dose: 800.0 mg/kg/injection, schedule: Q04DX003 (ip), vehicle: suspension in saline
[17] = dose: 200.0 mg/kg/injection, schedule: Q04DX003 (ip), vehicle: saline with Tween-80

Compound: CN(C)c1nc(N(C)C)nc(N(C)C)n1
- T/C (dose: 60.0 mg/kg/injection, schedule: Q01DX005 (ip), vehicle: Klucel (hydroxypropylcellulose) (HPC)): 71 % of control
- T/C (dose: 60.0 mg/kg/injection, schedule: Q07DX005 (ip), vehicle: Klucel (hydroxypropylcellulose) (HPC)): 188 % of control
- T/C (dose: 120.0 mg/kg/injection, schedule: Q01DX005 (ip), vehicle: Klucel (hydroxypropylcellulose) (HPC)): 85 % of control
- T/C (dose: 120.0 mg/kg/injection, schedule: Q07DX005 (ip), vehicle: Klucel (hydroxypropylcellulose) (HPC)): 78 % of control

Compound: O=NN(CCCl)C(=O)NC1CCCCC1
- T/C [1]: 44 % of control
- T/C [2]: 32 % of control

Compound: COc1cccc2c1C(=O)c1c(O)c3c(c(O)c1C2=O)C[C@@](O)(C(C)=O)C[C@@H]3OC1CC(N)C(O)C(C)O1 (some centres undefined)
- T/C (dose: 0.25 mg/kg/injection, schedule: Q04DX003 (ip), vehicle: saline): 52 % of control
- T/C [3]: 39 % of control
- T/C [4]: 86 % of control

Compound: Cc1c(N)nc(C(CC(N)=O)NCC(N)C(N)=O)nc1C(=O)NC(C(=O)NC(C)C(O)CC(=O)NC(C(=O)NC(OC1OC(C)C(N)C(O)C1O)C(O)c1nc(-c2nc(C(=O)NCCCC(N)CC(=O)NCCCNCCCCN)cs2)cs1)C(C)O)C(OC1OC(CO)C(O)C(O)C1OC1OC(CO)C(O)C(OC(N)=O)C1O)c1cnc[nH]1 (centres undefined)
- T/C [5]: 52 % of control
- T/C (dose: 8.0 mg/kg/injection, schedule: Q04DX003 (ip), vehicle: saline): 23 % of control

Compound: COc1ccc2c(NCCCCCCCCNc3c4ccccc4nc4cc(OC)ccc34)c3ccccc3nc2c1
- T/C (dose: 0.5 mg/kg/injection, schedule: Q04DX003 (ip), vehicle: distilled water + alcohol): 67 % of control
- T/C [3]: 60 % of control
- T/C (dose: 1.0 mg/kg/injection, schedule: Q04DX003 (ip), vehicle: distilled water + alcohol): 45 % of control
- T/C [4]: 61 % of control
- T/C (dose: 2.0 mg/kg/injection, schedule: Q04DX003 (ip), vehicle: distilled water + alcohol): 79 % of control
- T/C (dose: 2.0 mg/kg/injection, schedule: Q04DX003 (ip), vehicle: saline): 86 % of control
- T/C (dose: 4.0 mg/kg/injection, schedule: Q04DX003 (ip), vehicle: distilled water + alcohol): 45 % of control
- T/C [5]: 65 % of control

Compound: O=C(O)CP(=O)(O)O
- T/C [6]: 98 % of control
- T/C [7]: 90 % of control
- T/C [8]: 75 % of control

Compound: CC(C)CCCCCCCCCCCCC(=O)NCC(=O)NC1C(C)OC(Nc2ncnc3nc[nH]c23)C(O)C1O (centres undefined)
- T/C (dose: 6.25 mg/kg/injection, schedule: Q04DX003 (ip), vehicle: saline with Tween-80): 34 % of control

Compound: COc1cccc2c1C(=O)c1c(O)c3c(c(O)c1C2=O)C[C@@](O)(C(=O)CO)C[C@@H]3OC1CC(N)C(O)C(C)O1 (some centres undefined)
- T/C (dose: 4.0 mg/kg/injection, schedule: Q04DX003 (ip), vehicle: water): 81 % of control

Compound: CS(=O)(=O)OCCN(CCOS(C)(=O)=O)c1ccc(C=Nc2ccc(-c3csc(COc4ccccc4)n3)cc2)cc1
- T/C (dose: 100.0 mg/kg/injection, schedule: Q04DX003 (ip), vehicle: Klucel (hydroxypropylcellulose) (HPC)): 82 % of control

Compound: COC1C(C)OC(OC2CC(C)(O)Cc3cc4c(c(O)c32)C(=O)c2c(O)cc3c(c2C4=O)OC2OC3(C)C(O)C(N(C)C)C2O)C(OC)C1(C)OC (centres undefined)
- T/C (dose: 2.5 mg/kg/injection, schedule: Q04DX003 (ip), vehicle: Klucel (hydroxypropylcellulose) (HPC)): 69 % of control
- T/C (dose: 5.0 mg/kg/injection, schedule: Q04DX003 (ip), vehicle: Klucel (hydroxypropylcellulose) (HPC)): 75 % of control
- T/C [1]: 56 % of control
- T/C [2]: 38 % of control

Compound: N=C(N)Sc1ccccn1
- T/C (dose: 50.0 mg/kg/injection, schedule: Q04DX003 (ip), vehicle: saline): 182 % of control

Compound: O=NN(CCCl)C(=O)NC1CCC(=O)NC1=O (centres undefined)
- T/C (dose: 5.0 mg/kg/injection, schedule: Q04DX003 (ip), vehicle: saline with Tween-80): 49 % of control

Compound: CC(=O)Oc1ccc[nH]c1=O
- T/C (dose: 50.0 mg/kg/injection, schedule: Q04DX003 (ip), vehicle: saline with Tween-80): 91 % of control
- T/C [9]: 81 % of control
- T/C [10]: 76 % of control
- T/C [11]: 73 % of control

Compound: CCN(C)N=Nc1ccc(C(N)=O)cc1
- T/C (dose: 25.0 mg/kg/injection, schedule: Q04DX003 (ip), vehicle: Klucel (hydroxypropylcellulose) (HPC)): 67 % of control
- T/C (dose: 50.0 mg/kg/injection, schedule: Q04DX003 (ip), vehicle: Klucel (hydroxypropylcellulose) (HPC)): 9 % of control
- T/C (dose: 200.0 mg/kg/injection, schedule: Q04DX003 (ip), vehicle: Klucel (hydroxypropylcellulose) (HPC)): -60 % of control

Compound: O=C[C@@H](CO)O[C@H](C=O)n1cnc2c(=O)[nH]cnc21
- T/C [12]: 92 % of control
- T/C [13]: 73 % of control
- T/C [14]: 62 % of control

Compound: CNC=O
- T/C [15]: 64 % of control and 82 % of control and 86 % of control
- T/C [13]: 56 % of control and 67 % of control
- T/C [6]: 38 % of control and 41 % of control and 49 % of control
- T/C [14]: 37 % of control and 57 % of control
- T/C [7]: 12 % of control and 23 % of control
- T/C [16]: 25 % of control and 30 % of control

Compound: N=c1ccn2c(n1)OC1C(O)C(CO)OC12 (centres undefined)
- T/C [15]: 66 % of control
- T/C [6]: 83 % of control
- T/C [14]: 45 % of control and 61 % of control
- T/C [7]: 41 % of control
- T/C [16]: 17 % of control
- T/C [8]: 18 % of control
- T/C (dose: 1600.0 mg/kg/injection, schedule: Q04DX003 (ip), vehicle: suspension in saline): 27 % of control

Compound: COc1cccc2c1C(=O)c1c(O)c3c(c(O)c1C2=O)C[C@@](O)(/C(C)=N\O)C[C@@H]3OC1CC(N)C(O)C(C)O1 (some centres undefined)
- T/C (dose: 12.5 mg/kg/injection, schedule: Q04DX003 (ip), vehicle: saline): 55 % of control

Compound: O=C1N(Cl)C(=O)C(c2ccc(Cl)cc2)(c2ccc(Cl)cc2)N1Cl
- T/C [9]: 66 % of control
- T/C [17]: 42 % of control

Compound: O=C(NO)c1ccccc1
- T/C [12]: 95 % of control
- T/C [13]: 68 % of control and 84 % of control
- T/C [14]: 55 % of control and 80 % of control
- T/C [16]: 85 % of control

Compound: CO[C@@]12[C@H](COC(N)=O)C3=C(C(=O)C(C)=C(N)C3=O)N1C[C@@H]1N[C@@H]12
- T/C (dose: 1.5 mg/kg/injection, schedule: Q04DX003 (ip), vehicle: saline): 98 % of control
- T/C (dose: 3.0 mg/kg/injection, schedule: Q04DX003 (ip), vehicle: saline): 40 % of control

Compound: [N-]=[N+]=CC(=O)CCC(N)C(=O)O (centres undefined)
- T/C (dose: 37.5 mg/kg/injection, schedule: Q04DX003 (ip), vehicle: saline): -87 % of control

Compound: COc1cc2c[n+](C)c3c4cc5c(cc4ccc3c2cc1OC)OCO5
- T/C (dose: 20.0 mg/kg/injection, schedule: Q04DX003 (ip), vehicle: saline with Tween-80): 105 % of control
- T/C (dose: 40.0 mg/kg/injection, schedule: Q04DX003 (ip), vehicle: saline with Tween-80): 34 % of control
- T/C (dose: 80.0 mg/kg/injection, schedule: Q04DX003 (ip), vehicle: saline with Tween-80): 54 % of control

Compound: CC(C)=CCNc1ncnc2c1ncn2C1OC(CO)C(O)C1O (centres undefined)
- T/C [13]: 150 % of control

Compound: COc1cc([C@@H]2c3cc4c(c(O)c3C[C@H]3COC(=O)[C@@H]32)OCO4)cc(OC)c1OC
- T/C (dose: 2.5 mg/kg/injection, schedule: Q04DX003 (ip), vehicle: saline): 107 % of control
- T/C (dose: 5.0 mg/kg/injection, schedule: Q04DX003 (ip), vehicle: saline): 73 % of control
- T/C (dose: 10.0 mg/kg/injection, schedule: Q04DX003 (ip), vehicle: saline): 86 % of control
- T/C (dose: 20.0 mg/kg/injection, schedule: Q04DX003 (ip), vehicle: saline): 64 % of control

Compound: COc1cc([C@@H]2c3cc4c(c(O)c3C[C@H]3COC(=O)[C@@H]32)OCO4)cc(OC)c1O
- T/C (dose: 3.13 mg/kg/injection, schedule: Q04DX003 (ip), vehicle: saline): 122 % of control
- T/C (dose: 6.25 mg/kg/injection, schedule: Q04DX003 (ip), vehicle: saline): 55 % of control

Compound: O=CC(S)CO (centres undefined)
- T/C [13]: 99 % of control

Compound: O=C(NC1CCCCC1)OCc1c(COC(=O)NC2CCCCC2)c(-c2ccc(Cl)c(Cl)c2)n2c1CCC2
- T/C [17]: 89 % of control
- T/C [10]: 88 % of control
- T/C [11]: 73 % of control

Compound: Nc1ccc(Cl)cc1N
- T/C [9]: 101 % of control
